Laboratory results as given in ChEMBL document CHEMBL1177723, “Severe acute respiratory syndrome coronavirus papain-like novel protease inhibitors: design, synthesis, protein-ligand X-ray structure and biological evaluation” (J Med Chem, 2010).

How the values were obtained:
[1] = Inhibition of SARS coronavirus papain-like protease expressed in Escherichia coli; set-up: species or system Severe acute respiratory syndrome-related coronavirus
SARS-CoV = experiment: Antiviral activity against SARS coronavirus infected in african green monkey Vero E6 cells assessed as inhibition of viral replication after 48 hrs by luminescence assay; format: functional, organism-based, Severe acute respiratory syndrome-related coronavirus
[2] = Severe acute respiratory syndrome-related coronavirus, Vero, 48 h, read-out: EC50

Row | SMILES | IC50 [1] | EC50 (SARS-CoV; [2]) | EC50 (SARS-CoV; vero)
1 | COc1ccc(CNC(=O)C2CCN(C(C)c3ccc4ccccc4c3)CC2)cc1 (racemic) | > 100 µM |  | 
2 | C[C@@H](c1cccc2ccccc12)N1CCC(C(=O)NCc2ccc3c(c2)OCO3)CC1 | 0.56 µM | 9.1 µM | 
3 | O=C(NCc1ccc2c(c1)OCO2)C1CCN(Cc2cccc3ccccc23)CC1 | 45 µM |  | 
4 | COc1cccc(CNC(=O)C2CCN([C@H](C)c3cccc4ccccc34)CC2)c1 | 0.34 µM | 9.7 µM | 
5 | COc1ccc(CNC(=O)C2CCN(Cc3cccc4ccccc34)CC2)cc1 | 59.2 µM |  | Not Active
6 | COc1ccccc1CNC(=O)C1CCN(Cc2cccc3ccccc23)CC1 | 116 µM |  | 
7 | C[C@H](c1cccc2ccccc12)N1CCC(C(=O)NCc2ccc3c(c2)OCO3)CC1 |  | 9.1 µM | 
8 | COc1cccc(CNC(=O)C2CCN([C@H](C)c3ccc4ccccc4c3)CC2)c1 | 13.2 µM |  | 
9 | COc1cccc(CNC(=O)C2CCN([C@@H](C)c3ccc4ccccc4c3)CC2)c1 | 5.8 µM | > 25 µM | 
10 | O=C(NCc1ccc2c(c1)OCO2)C1CCN(Cc2ccc3ccccc3c2)CC1 | 100 µM |  | 
11 | COc1cccc(CNC(=O)C2CCN(Cc3cccc4ccccc34)CC2)c1 | 30 µM |  | 
12 | COc1ccccc1CNC(=O)C1CCN([C@H](C)c2cccc3ccccc23)CC1 | 1.21 µM | 11.6 µM | 
13 | COc1ccccc1CNC(=O)C1CCN([C@H](C)c2ccc3ccccc3c2)CC1 | 34.8 µM |  | 
14 | COc1ccc(CNC(=O)C2CCN([C@H](C)c3cccc4ccccc34)CC2)cc1 | 0.34 µM | 10.2 µM | 
15 | CC(C)(c1cccc2ccccc12)N1CCC(C(=O)NCc2ccc3c(c2)OCO3)CC1 | > 200 µM |  | 
